Measured values taken from ChEMBL document CHEMBL4804282, “Quinoline-based compounds and methods of inhibiting cdk8/19” (2020).
Calls of active or inactive are those of the source. The calls are words filed in the database; no cut-off is given here.

Columns and labels:
[1] = target: Cyclin-dependent kinase 8 (Homo sapiens) (UniProt P49336); assay: Inhibition of CDK8 in TNF-alpha-induced HEK293 cells at 1 uM by NF-kappaB reporter assay relative to control; format: cell-based
[2] = Elimination rate in female FVB mouse at 27 mg/kg, ip by LC/MS/MS analysis; format: ADME, organism-based; settings: in vivo
[3] = target: T1, Myosin-IIIb (Homo sapiens) (UniProt Q8WXR4); assay: Inhibition of human MYO3B by DiscoverX assay
T1 sequence (whole entry): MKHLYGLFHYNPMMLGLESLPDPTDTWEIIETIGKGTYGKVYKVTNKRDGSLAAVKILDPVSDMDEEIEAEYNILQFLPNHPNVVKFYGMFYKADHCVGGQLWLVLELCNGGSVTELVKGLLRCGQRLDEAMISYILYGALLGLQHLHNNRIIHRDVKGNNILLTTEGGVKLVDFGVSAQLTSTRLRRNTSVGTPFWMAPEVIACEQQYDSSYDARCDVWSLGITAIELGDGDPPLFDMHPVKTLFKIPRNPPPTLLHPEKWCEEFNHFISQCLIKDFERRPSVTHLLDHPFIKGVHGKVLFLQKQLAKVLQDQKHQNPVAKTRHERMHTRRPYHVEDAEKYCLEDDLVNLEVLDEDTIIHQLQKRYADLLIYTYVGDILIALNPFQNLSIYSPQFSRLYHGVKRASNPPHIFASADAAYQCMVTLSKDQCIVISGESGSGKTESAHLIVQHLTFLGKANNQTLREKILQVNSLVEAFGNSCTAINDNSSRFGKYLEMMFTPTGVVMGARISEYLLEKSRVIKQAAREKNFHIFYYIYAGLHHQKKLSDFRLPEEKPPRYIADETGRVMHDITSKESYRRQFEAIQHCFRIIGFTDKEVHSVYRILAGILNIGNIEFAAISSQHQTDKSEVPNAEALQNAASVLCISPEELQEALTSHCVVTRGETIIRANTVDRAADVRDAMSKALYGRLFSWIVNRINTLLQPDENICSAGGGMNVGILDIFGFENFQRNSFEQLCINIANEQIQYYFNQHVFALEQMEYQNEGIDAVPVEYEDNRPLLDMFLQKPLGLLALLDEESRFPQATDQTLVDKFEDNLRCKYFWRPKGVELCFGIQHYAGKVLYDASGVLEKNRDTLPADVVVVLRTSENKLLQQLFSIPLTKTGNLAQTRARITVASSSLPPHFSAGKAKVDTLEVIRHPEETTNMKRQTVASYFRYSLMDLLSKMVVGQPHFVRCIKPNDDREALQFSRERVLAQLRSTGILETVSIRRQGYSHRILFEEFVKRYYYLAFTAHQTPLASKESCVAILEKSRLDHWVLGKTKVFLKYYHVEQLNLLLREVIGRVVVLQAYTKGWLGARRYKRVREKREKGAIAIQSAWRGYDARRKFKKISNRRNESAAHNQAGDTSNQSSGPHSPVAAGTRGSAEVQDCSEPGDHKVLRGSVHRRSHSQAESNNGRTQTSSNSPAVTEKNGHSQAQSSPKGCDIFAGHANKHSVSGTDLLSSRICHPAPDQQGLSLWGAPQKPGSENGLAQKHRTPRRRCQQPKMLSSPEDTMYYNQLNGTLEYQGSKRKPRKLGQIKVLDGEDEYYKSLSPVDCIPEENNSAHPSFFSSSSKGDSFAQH

[4] = Inhibition of prostate specific antigen (PSA) production in human LNCaP C4-2 cells measured after 4 days by ELISA assay; format: functional, cell-based; settings: LNCaP C4-2, 96 h
[5] = Metabolic stability of compound in human hepatocytes assessed as metabolic conversion rate by LC/MS/MS analysis; format: ADME, cell-based, Hepatocyte
[6] = AUC in female FVB mouse at 27 mg/kg, ip by LC/MS/MS analysis; format: ADME, organism-based; parameters: dose 27 mg/kg; settings: in vivo
[7] = Half-life in female FVB mouse at 27 mg/kg, ip by LC/MS/MS analysis; format: ADME, organism-based; settings: in vivo
LNCaP C4-2 = assay: Antitumor activity against human C4-2 cells xenografted in male NcrNU mouse assessed as decrease in PSA mRNA levels in tumor at 40 mg/kg, po administered for 4 days; format: functional, organism-based
[8] = Elimination rate in female FVB mouse at 19 mg/kg, ip by LC/MS/MS analysis; format: ADME, organism-based; settings: in vivo
[9] = target: T2, Serine/threonine-protein kinase haspin (Homo sapiens) (UniProt Q8TF76); assay: Inhibition of human HASPIN at 2000 nM by KINOMEscan assay
T2 sequence (whole entry): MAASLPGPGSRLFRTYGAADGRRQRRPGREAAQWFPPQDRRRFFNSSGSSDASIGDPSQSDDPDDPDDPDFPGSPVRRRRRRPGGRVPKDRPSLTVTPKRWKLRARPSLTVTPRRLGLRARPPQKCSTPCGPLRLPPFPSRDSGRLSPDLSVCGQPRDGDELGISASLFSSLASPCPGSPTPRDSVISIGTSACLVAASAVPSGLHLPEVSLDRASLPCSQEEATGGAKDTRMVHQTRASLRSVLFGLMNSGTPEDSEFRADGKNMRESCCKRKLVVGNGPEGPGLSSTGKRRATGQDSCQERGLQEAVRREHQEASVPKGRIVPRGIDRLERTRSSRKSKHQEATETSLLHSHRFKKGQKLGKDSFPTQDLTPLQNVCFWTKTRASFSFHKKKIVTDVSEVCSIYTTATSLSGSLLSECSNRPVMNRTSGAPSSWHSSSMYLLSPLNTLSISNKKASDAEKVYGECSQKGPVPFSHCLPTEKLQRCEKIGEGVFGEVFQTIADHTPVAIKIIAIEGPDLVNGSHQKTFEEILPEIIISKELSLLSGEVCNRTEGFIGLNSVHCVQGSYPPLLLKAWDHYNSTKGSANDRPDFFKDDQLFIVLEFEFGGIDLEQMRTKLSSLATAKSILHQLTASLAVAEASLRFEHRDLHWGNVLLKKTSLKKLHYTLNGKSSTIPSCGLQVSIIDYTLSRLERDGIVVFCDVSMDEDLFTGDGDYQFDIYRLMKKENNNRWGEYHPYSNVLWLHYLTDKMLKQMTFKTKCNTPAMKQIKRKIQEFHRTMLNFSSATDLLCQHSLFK

[10] = Half-life in female FVB mice at 30 mg/kg, po; format: ADME, organism-based; settings: mouse, in vivo
[11] = Ratio of tumor to blood biodistribution in male NcrNU mouse xenografted with 22Rv1 human xenografts at 20 mg/kg, ip; format: ADME, organism-based, Serum/Tumor
[12] = target: T3, Cyclin-dependent kinase 8/19 (Homo sapiens) (UniProt P49336+Q9BWU1); assay: Inhibition of CDK8/CDK19 in HEK293 cells assessed as reduction in JUN expression at 1 uM incubated for 2 hrs and measured after 24 hrs of compound wash-off; format: cell-based
T3 sequence (P49336 whole entry, looked up): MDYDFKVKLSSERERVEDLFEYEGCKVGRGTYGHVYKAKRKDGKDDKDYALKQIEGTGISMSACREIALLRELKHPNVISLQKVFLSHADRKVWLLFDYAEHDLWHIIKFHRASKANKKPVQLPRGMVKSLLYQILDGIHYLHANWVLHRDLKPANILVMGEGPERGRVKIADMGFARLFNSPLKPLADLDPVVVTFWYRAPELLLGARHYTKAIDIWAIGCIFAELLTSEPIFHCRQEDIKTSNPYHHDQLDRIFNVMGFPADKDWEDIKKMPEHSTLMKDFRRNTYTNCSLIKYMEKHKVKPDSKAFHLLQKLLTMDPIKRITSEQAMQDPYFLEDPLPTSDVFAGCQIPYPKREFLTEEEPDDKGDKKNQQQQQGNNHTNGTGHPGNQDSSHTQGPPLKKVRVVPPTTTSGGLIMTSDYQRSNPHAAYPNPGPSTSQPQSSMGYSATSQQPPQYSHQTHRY
T3 sequence (Q9BWU1 whole entry, looked up): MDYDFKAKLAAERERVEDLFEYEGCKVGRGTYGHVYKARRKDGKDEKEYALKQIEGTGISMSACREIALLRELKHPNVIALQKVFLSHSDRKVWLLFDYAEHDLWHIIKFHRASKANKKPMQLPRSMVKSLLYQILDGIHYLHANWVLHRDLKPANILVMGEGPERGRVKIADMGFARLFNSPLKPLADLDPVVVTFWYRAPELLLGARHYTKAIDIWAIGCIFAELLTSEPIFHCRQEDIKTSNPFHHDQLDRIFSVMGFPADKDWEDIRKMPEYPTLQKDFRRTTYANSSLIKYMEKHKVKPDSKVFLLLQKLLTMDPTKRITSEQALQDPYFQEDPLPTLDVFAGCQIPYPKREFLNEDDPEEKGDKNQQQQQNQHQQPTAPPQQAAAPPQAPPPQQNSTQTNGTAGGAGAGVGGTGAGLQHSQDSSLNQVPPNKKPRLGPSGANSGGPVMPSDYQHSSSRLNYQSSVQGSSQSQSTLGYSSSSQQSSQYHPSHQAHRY

[13] = target: T3, Cyclin-dependent kinase 8/19 (Homo sapiens); assay: Inhibition of CDK8/CDK19 in HEK293 cells assessed as reduction in MYC expression at 1 uM incubated for 2 hrs and measured after 24 hrs of compound wash-off; format: cell-based
[14] = target: Cyclin-dependent kinase 19 (Homo sapiens) (UniProt Q9BWU1); assay: Inhibition of human CDK19 at 2000 nM by KINOMEscan assay
Cyclin-dependent kinase 19 (Homo sapiens), sequence (Q9BWU1 whole entry): as the sequence (Q9BWU1 whole entry, looked up) above

[15] = Drug uptake in tumor of male NcrNU mouse xenografted with human C4-2 cells at 40 mg/kg, po administered for 4 days; format: ADME, organism-based, Neoplasm, LNCaP C4-2; settings: in vivo, 96 h
[16] = target: Cyclin-dependent kinase 8 (Homo sapiens) (UniProt P49336); assay: Inhibition of human CDK8 at 2000 nM by KINOMEscan assay
[17] = target: T1, Myosin-IIIb (Homo sapiens); assay: Inhibition of human MYO3B at 2000 nM by KINOMEscan assay
[18] = AUC (0-8 h) in female FVB mouse at 30 mg/kg, po; format: ADME, organism-based; parameters: time < 8 hr, route oral, dose 30 mg/kg; settings: in vivo
4T1 = assay: Antitumour activity against mouse 4T1 cells xenografted in female Balb/c mouse assessed as increase in animal survival at 40 mg/kg, po administered twice per day; format: functional, organism-based
[19] = target: T4, Mitogen-activated protein kinase kinase kinase kinase 2 (Homo sapiens) (UniProt Q12851); assay: Inhibition of human MAP4K2 at 2000 nM by KINOMEscan assay
T4 sequence (whole entry): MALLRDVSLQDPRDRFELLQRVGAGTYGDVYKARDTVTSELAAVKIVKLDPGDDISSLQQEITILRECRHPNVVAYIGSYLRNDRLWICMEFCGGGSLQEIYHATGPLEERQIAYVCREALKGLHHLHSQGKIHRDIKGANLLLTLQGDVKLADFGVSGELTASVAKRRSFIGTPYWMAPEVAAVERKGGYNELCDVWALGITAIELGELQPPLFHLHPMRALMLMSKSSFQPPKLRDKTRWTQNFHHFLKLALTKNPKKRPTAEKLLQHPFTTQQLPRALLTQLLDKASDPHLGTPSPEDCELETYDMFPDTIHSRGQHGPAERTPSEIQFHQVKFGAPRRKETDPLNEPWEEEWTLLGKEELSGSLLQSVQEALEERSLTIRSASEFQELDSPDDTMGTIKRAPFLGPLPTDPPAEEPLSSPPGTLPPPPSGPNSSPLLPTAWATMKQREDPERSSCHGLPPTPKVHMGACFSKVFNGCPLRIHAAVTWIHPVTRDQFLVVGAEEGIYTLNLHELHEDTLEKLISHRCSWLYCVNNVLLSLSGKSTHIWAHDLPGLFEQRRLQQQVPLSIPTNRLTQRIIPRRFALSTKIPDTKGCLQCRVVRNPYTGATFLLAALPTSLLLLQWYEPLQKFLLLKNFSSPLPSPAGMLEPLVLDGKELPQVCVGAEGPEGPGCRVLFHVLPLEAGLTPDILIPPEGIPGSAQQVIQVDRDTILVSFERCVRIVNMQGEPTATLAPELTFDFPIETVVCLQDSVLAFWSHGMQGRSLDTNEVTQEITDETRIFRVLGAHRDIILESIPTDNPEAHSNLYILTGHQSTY

Cyclin-dependent kinase 8 (Homo sapiens), sequence (P49336 whole entry): as the sequence (P49336 whole entry, looked up) above

`Clc1ccc2nccc(NCCc3ccccc3)c2c1` showed an inhibition [1] of 8%.

For `CN1CCN(C(=O)c2ccc3cc(CCNc4ncnc5ccc(C#N)cc45)ccc3c2)CC1` [SENEXIN B], the k el [2] was 0.00111 s⁻¹, the inhibition [3] was “inactive” and the IC50 [4] was 222 nM. The Stabilty [5] was “Unstable”, the AUC [6] was 1760 ng·h/mL and the half-life [7] was 0.17 h.

Compound `Brc1ccc2nccc(NCCc3ccccc3)c2c1` has an inhibition [1] of 10%.

In the case of `CN1CCN(C(=O)c2ccc3cc(CCNc4ccnc5ccc(C#N)cc45)ccc3c2)CC1`, the Activity (LNCaP C4-2) is reported as “Active”, the k el [8] is reported as 0.000261 s⁻¹ and the inhibition [9] is reported as greater than 65%. It also gave an IC50 [4] of 82 nM, a half-life [10] of 3.8 h and a Kp [11] of 5. The inhibition [12] was “Active”, the inhibition [13] was “Active” and the Stabilty [5] was “Stable”. For the same compound, the inhibition [14] was greater than 65%, the Drug uptake [15] was “Active” and the inhibition [16] was greater than 65%. The inhibition [17] was greater than 65%, the AUC(0-t) at 8 h [18] was 817 ng·h/mL and the Activity (4T1) was “Active”. For the same compound, the inhibition [19] was greater than 65%.
